Measured values reported in ChEMBL document CHEMBL2069302, “Nortriterpene glycosides of the sarasinoside class from the sponge Lipastrotethya sp” (J Nat Prod, 2012).

Assays:
K562 = experiment: Cytotoxicity against human K562 cells; format: functional; details: read-out: LC50 (the source's name)
A549 = experiment: Cytotoxicity against human A549 cells; format: functional; details: read-out: LC50 (the source's name)
[1] = target: Sodium/potassium-transporting ATPase; experiment: Inhibition of Sodium/potassium-transporting ATPase; format: protein-complex assay, Homo sapiens

Row | SMILES | CC50 (K562) | CC50 (A549) | IC50 [1]
1 | CC(=O)N[C@H]1[C@H](O[C@@H]2CO[C@@H](O[C@H]3CC[C@]4(C)C5=C(CC[C@H]4C3(C)C)[C@@H]3CC[C@H]([C@H](C)CC(=O)CC(C)(C)O)[C@@]3(C)CC5)[C@H](O[C@@H]3O[C@H](CO[C@@H]4O[C@H](CO)[C@@H](O)[C@H](O)[C@H]4O[C@@H]4O[C@H](CO)[C@@H](O)[C@H](O)[C@H]4O)[C@@H](O)[C@H](O)[C@H]3NC(C)=O)[C@H]2O)O[C@H](CO)[C@H](O)[C@@H]1O [SARASINOSIDE J] | 20.8 µM | 10.3 µM | > 76.5 µM
2 | CC(=O)N[C@H]1[C@H](O[C@@H]2CO[C@@H](O[C@H]3CC[C@@]4(C)[C@@H](CC[C@@]5(O)[C@]4(O)CC=C4[C@@H]([C@H](C)CC(=O)C=C(C)C)CC[C@@]45C)C3(C)C)[C@H](O[C@@H]3O[C@H](CO[C@@H]4O[C@H](CO)[C@@H](O)[C@H](O)[C@H]4O[C@@H]4O[C@H](CO)[C@@H](O)[C@H](O)[C@H]4O)[C@@H](O)[C@H](O)[C@H]3NC(C)=O)[C@H]2O)O[C@H](CO)[C@H](O)[C@@H]1O [SARASINOSIDE R] | > 100 µM | 14.7 µM | > 75.7 µM
3 | CC(=O)N[C@H]1[C@H](O[C@@H]2CO[C@@H](O[C@H]3CC[C@]4(C)C5=C(CC[C@H]4C3(C)C)[C@@H]3CC[C@H]([C@H](C)CC(=O)C=C(C)C)[C@@]3(C)CC5)[C@H](O[C@@H]3O[C@H](CO)[C@@H](O)[C@H](O)[C@H]3NC(C)=O)[C@H]2O)O[C@H](CO)[C@H](O)[C@@H]1O (relative stereo) | 20.2 µM | 10.7 µM | 56.1 µM
4 | CO[C@@H]1C[C@H]([C@H](C)CC(=O)C=C(C)C)[C@@]2(C)CC[C@@]3(O)C(=C12)CC[C@H]1C(C)(C)[C@@H](O[C@@H]2OC[C@@H](O[C@@H]4O[C@H](CO)[C@H](O)[C@H](O)[C@H]4NC(C)=O)[C@H](O)[C@H]2O[C@@H]2O[C@H](CO[C@@H]4O[C@H](CO)[C@@H](O)[C@H](O)[C@H]4O[C@@H]4O[C@H](CO)[C@@H](O)[C@H](O)[C@H]4O)[C@@H](O)[C@H](O)[C@H]2NC(C)=O)CC[C@@]13C [SARASINOSIDE H2] | 42.7 µM | > 100 µM | > 74.9 µM
5 | CC(C)=CC(=O)C[C@@H](C)[C@H]1CCC2=C3CC[C@H]4C(C)(C)[C@@H](O)CC[C@]4(C)[C@H]3CC[C@@]21C | 69.4 µM | 41.6 µM | > 234 µM
6 | CC(=O)N[C@H]1[C@H](O[C@@H]2CO[C@@H](O[C@H]3CC[C@]4(C)C5=C(CC[C@H]4C3(C)C)[C@@H]3CC[C@H]([C@H](C)CC(=O)C=C(C)C)[C@@]3(C)CC5)[C@H](O[C@@H]3O[C@H](CO[C@@H]4O[C@H](CO)[C@@H](O)[C@H](O)[C@H]4O[C@@H]4O[C@H](CO)[C@@H](O)[C@H](O)[C@H]4O)[C@@H](O)[C@H](O)[C@H]3NC(C)=O)[C@H]2O)O[C@H](CO)[C@H](O)[C@@H]1O [SARASINOSIDE A1] | 7.4 µM | 7.6 µM | 46.5 µM
7 | CC(=O)N[C@H]1[C@H](O[C@@H]2CO[C@@H](O[C@H]3CC[C@]4(C)C5=CC[C@]6(C)[C@@H]([C@H](C)CC(=O)C=C(C)C)CC[C@H]6C5=CC[C@H]4C3(C)C)[C@H](O[C@@H]3O[C@H](CO[C@@H]4O[C@H](CO)[C@@H](O)[C@H](O)[C@H]4O[C@@H]4O[C@H](CO)[C@@H](O)[C@H](O)[C@H]4O)[C@@H](O)[C@H](O)[C@H]3NC(C)=O)[C@H]2O)O[C@H](CO)[C@H](O)[C@@H]1O [SARASINOSIDE A2] | 8.5 µM | 7.6 µM | > 77.7 µM
8 | CC(=O)N[C@H]1[C@H](O[C@@H]2CO[C@@H](O[C@H]3CC[C@]4(C)C5=CC[C@]6(C)[C@@H]([C@H](C)CC(=O)C=C(C)C)CC[C@H]6[C@@]5(O)CC[C@@]4(O)C3(C)C)[C@H](O[C@@H]3O[C@H](CO[C@@H]4O[C@H](CO)[C@@H](O)[C@H](O)[C@H]4O[C@@H]4O[C@H](CO)[C@@H](O)[C@H](O)[C@H]4O)[C@@H](O)[C@H](O)[C@H]3NC(C)=O)[C@H]2O)O[C@H](CO)[C@H](O)[C@@H]1O [SARASINOSIDE O] | 61.5 µM | 54.7 µM | > 75.7 µM
9 | CC(=O)N[C@H]1[C@H](O[C@@H]2CO[C@@H](O[C@H]3CC[C@]4(C)C5=CC[C@@]6(C)C(=C(CC[C@H]4C3(C)C)O5)CC[C@@H]6[C@H](C)CC(=O)C=C(C)C)[C@H](O[C@@H]3O[C@H](CO[C@@H]4O[C@H](CO)[C@@H](O)[C@H](O)[C@H]4O[C@@H]4O[C@H](CO)[C@@H](O)[C@H](O)[C@H]4O)[C@@H](O)[C@H](O)[C@H]3NC(C)=O)[C@H]2O)O[C@H](CO)[C@H](O)[C@@H]1O [SARASINOSIDE M] | 12.1 µM | 7.7 µM | > 76.7 µM
10 | CC(=O)N[C@H]1[C@H](O[C@H]2[C@H](O[C@H]3CC[C@]4(C)C5=C(CC[C@H]4C3(C)C)[C@@H]3CC[C@H]([C@H](C)CC(=O)C=C(C)C)[C@@]3(C)CC5)OC[C@@H](O)[C@@H]2O)O[C@H](CO[C@@H]2O[C@H](CO)[C@@H](O)[C@H](O)[C@H]2O[C@@H]2O[C@H](CO)[C@@H](O)[C@H](O)[C@H]2O)[C@@H](O)[C@@H]1O | 18.7 µM | 9.1 µM | 54.7 µM
11 | CC(=O)N[C@H]1[C@H](O[C@@H]2CO[C@@H](O[C@H]3CC[C@]4(C)C5=CC[C@]6(C)[C@@H]([C@H](C)CC(=O)C=C(C)C)CC[C@H]6[C@]5(O)CC[C@]4(O)C3(C)C)[C@H](O[C@@H]3O[C@H](CO[C@@H]4O[C@H](CO)[C@@H](O)[C@H](O)[C@H]4O[C@@H]4O[C@H](CO)[C@@H](O)[C@H](O)[C@H]4O)[C@@H](O)[C@H](O)[C@H]3NC(C)=O)[C@H]2O)O[C@H](CO)[C@H](O)[C@@H]1O [SARASINOSIDE P] | 11.6 µM | 17.9 µM | > 75.7 µM
12 | CC(=O)N[C@H]1[C@H](O[C@@H]2CO[C@@H](O[C@H]3CC[C@@]4(C)[C@@H](CCC5=C6CC[C@H]([C@H](C)CC(=O)C=C(C)C)[C@@]6(C)CC[C@@]4(O)O5)C3(C)C)[C@H](O[C@@H]3O[C@H](CO[C@@H]4O[C@H](CO)[C@@H](O)[C@H](O)[C@H]4O[C@@H]4O[C@H](CO)[C@@H](O)[C@H](O)[C@H]4O)[C@@H](O)[C@H](O)[C@H]3NC(C)=O)[C@H]2O)O[C@H](CO)[C@H](O)[C@@H]1O [SARASINOSIDE Q] | 17.9 µM | 14 µM | > 75.7 µM
13 | COc1cccc2c1C(=O)c1c(O)c3c(c(O)c1C2=O)C[C@@](O)(C(=O)CO)C[C@@H]3O[C@H]1C[C@H](N)[C@H](O)[C@H](C)O1 [DOXORUBICIN] | 4.7 µM | 1.7 µM | 
14 | CC(=O)N[C@H]1[C@H](O[C@@H]2CO[C@@H](O[C@H]3CC[C@]4(C)C5=C(CC[C@H]4C3(C)C)C3=CC[C@H]([C@H](C)CC(=O)C=C(C)C)[C@@]3(C)CC5)[C@H](O[C@@H]3O[C@H](CO[C@@H]4O[C@H](CO)[C@@H](O)[C@H](O)[C@H]4O[C@@H]4O[C@H](CO)[C@@H](O)[C@H](O)[C@H]4O)[C@@H](O)[C@H](O)[C@H]3NC(C)=O)[C@H]2O)O[C@H](CO)[C@H](O)[C@@H]1O [SARASINOSIDE A3] | 24.8 µM | 10.1 µM | > 77.7 µM
15 | CC(=O)N[C@H]1[C@H](O[C@@H]2CO[C@@H](O[C@H]3CC[C@@]4(C)[C@@H](CCC5=C6[C@H](O)C[C@H]([C@H](C)CC(=O)C=C(C)C)[C@@]6(C)CC[C@@]54O)C3(C)C)[C@H](O[C@@H]3O[C@H](CO[C@@H]4O[C@H](CO)[C@@H](O)[C@H](O)[C@H]4O[C@@H]4O[C@H](CO)[C@@H](O)[C@H](O)[C@H]4O)[C@@H](O)[C@H](O)[C@H]3NC(C)=O)[C@H]2O)O[C@H](CO)[C@H](O)[C@@H]1O [SARASINOSIDE H1] | 37.4 µM | 14.2 µM | > 75.7 µM
